System: normal human lung fibroblasts
Assay: Ribosomal profiling: translational efficiency in TGFβ-treated fibroblasts
Format: cell-based
Experimental: Ribosomal profiling allows for measurement of changes in transcription and translation on a genome-wide basis accompanying TGFβ-dependent transformation of fibroblasts to myofibroblasts. Ribosomal profiles of the TGFβ-treated fibroblasts from Example 1 (about 6×10^6 cells/10 cm plate) were prepared and analyzed for changes in translational efficiencies with respect to potential disease-associated cellular changes accompanying this TGFβ-induced transformation.
Briefly, cells were washed with cold PBS supplemented with cycloheximide and lysed with 1× mammalian cell lysis buffer for 10 minutes on ice. Lysates were clarified by centrifugation for 10 minutes at 14,000 rpm and supernatants were collected. Cell lysates were processed to generate ribosomal protected fragments and total mRNA according to the instructions included with the ARTseq Ribosome Profiling Kit (Illumina, San Diego, Calif.). Sequencing of total RNA (RNA) and of ribosome-protected fragments of RNA (RPF) was carried out using RNA-Seq methodology according to the manufacturer's instructions (Illumina). To analyze the ribosomal profiles, RNA-Seq reads were processed with tools from the FASTX-Toolkit (fastq_quality_trimmer, fastx_clipper and fastx_trimmer). Unprocessed and processed reads were evaluated for a variety of quality measures using FastQC, and processed reads were mapped to the human genome using TopHat (see, e.g., Trapnell et al., Bioinformatics 25:1105, 2009). Gene-by-gene assessment of the number of fragments strictly and uniquely mapping to the coding region of each gene was conducted using HTSeq-count, a component of the HTSeq package. […] Genes with low counts in either RPF or RNA were excluded from differential analyses. Pathway and network analyses of differential data were conducted using Ingenuity Pathway Analysis (IPA).

## TGFβ
ENSG00000156508, 5 replicates
  Log2 TE EEF1A1: 1.851
ENSG00000156508, Control vs. TGFβ
  change in translational profile of EEF1A1 caused by TGFβ: E (E = <1.5 to 2.5)
ENSG00000157168, 5 replicates
  Log2 TE NRG1: 1.162
ENSG00000157168, Control vs. TGFβ
  change in translational profile of NRG1 caused by TGFβ: D (D = <1.0 to 1.5)
ENSG00000158859, Control vs. TGFβ
  change in translational profile of ADAMTS4 caused by TGFβ: D (D = <1.0 to 1.5)
ENSG00000161016, 5 replicates
  Log2 TE RPL8: 1.353
ENSG00000161016, Control vs. TGFβ
  change in translational profile of RPL8 caused by TGFβ: E (E = <1.5 to 2.5)
ENSG00000161970, 5 replicates
  Log2 TE RPL26: 1.655
ENSG00000161970, Control vs. TGFβ
  change in translational profile of RPL26 caused by TGFβ: E (E = <1.5 to 2.5)
ENSG00000162244, 5 replicates
  Log2 TE RPL29: 1.589
ENSG00000162244, Control vs. TGFβ
  change in translational profile of RPL29 caused by TGFβ: E (E = <1.5 to 2.5)
ENSG00000162545, Control vs. TGFβ
  change in translational profile of CAMK2N1 caused by TGFβ: C (C = <−1.0 to −1.5)
ENSG00000162599, 5 replicates
  Log2 TE NFIA: −1.2934
ENSG00000163219, 5 replicates
  Log2 TE ARHGAP25: 1.166
ENSG00000163453, Control vs. TGFβ
  change in translational profile of IGFBP7 caused by TGFβ: E (E = <1.5 to 2.5)
ENSG00000163584, 5 replicates
  Log2 TE RPL22L1: 1.012
ENSG00000163584, Control vs. TGFβ
  change in translational profile of RPL22L1 caused by TGFβ: D (D = <1.0 to 1.5)
ENSG00000163661, 5 replicates
  Log2 TE PTX3: −1.576
ENSG00000163682, 5 replicates
  Log2 TE RPL9: 1.613
ENSG00000163682, Control vs. TGFβ
  change in translational profile of RPL9 caused by TGFβ: E (E = <1.5 to 2.5)
ENSG00000163931, 5 replicates
  Log2 TE TKT: 1.142
ENSG00000164116, 5 replicates
  Log2 TE GUCY1A3: −1.932
ENSG00000164292, 5 replicates
  Log2 TE RHOBTB3: −1.529
ENSG00000164292, Control vs. TGFβ
  change in translational profile of RHOBTB3 caused by TGFβ: B (B = <−1.5 to −2.5)
ENSG00000164342, 5 replicates
  Log2 TE TLR3: −1.371
ENSG00000164587, 5 replicates
  Log2 TE RPS14: 1.684
ENSG00000164588, Control vs. TGFβ
  change in translational profile of HCN1 caused by TGFβ: D (D = <1.0 to 1.5)
ENSG00000165171, 5 replicates
  Log2 TE WBSCR27: 1.116
ENSG00000165502, Control vs. TGFβ
  change in translational profile of RPL36AL caused by TGFβ: D (D = <1.0 to 1.5)
ENSG00000166441, 5 replicates
  Log2 TE RPL27A: 2.09
ENSG00000166441, Control vs. TGFβ
  change in translational profile of RPL27A caused by TGFβ: F (F = >2.5)
ENSG00000166503, Control vs. TGFβ
  change in translational profile of RP11-382A20.3.1 caused by TGFβ: C (C = <−1.0 to −1.5)
ENSG00000166839, Control vs. TGFβ
  change in translational profile of ANKDD1A caused by TGFβ: C (C = <−1.0 to −1.5)
ENSG00000167526, 5 replicates
  Log2 TE RPL13: 1.465
ENSG00000167526, Control vs. TGFβ
  change in translational profile of RPL13 caused by TGFβ: E (E = <1.5 to 2.5)
ENSG00000167658, 5 replicates
  Log2 TE EEF2: 2.323
ENSG00000167658, Control vs. TGFβ
  change in translational profile of EEF2 caused by TGFβ: F (F = >2.5)
ENSG00000168028, 5 replicates
  Log2 TE RPSA: 1.359
ENSG00000168769, 5 replicates
  Log2 TE TET2: 1.377
ENSG00000168916, 5 replicates
  Log2 TE ZNF608: −1.59
ENSG00000169100, 5 replicates
  Log2 TE SLC25A6: 1.909
ENSG00000169231, 5 replicates
  Log2 TE THBS3: 1.188
ENSG00000169239, 5 replicates
  Log2 TE CA5B: −1.791
ENSG00000169239, Control vs. TGFβ
  change in translational profile of CA5B caused by TGFβ: B (B = <−1.5 to −2.5)
ENSG00000169330, 5 replicates
  Log2 TE KIAA1024: 2.216
ENSG00000169330, Control vs. TGFβ
  change in translational profile of KIAA1024 caused by TGFβ: F (F = >2.5)
ENSG00000170275, 5 replicates
  Log2 TE CRTAP: 1.022
ENSG00000170537, 5 replicates
  Log2 TE TMC7: 1.745
ENSG00000170681, 5 replicates
  Log2 TE MURC: 3.678
ENSG00000170681, Control vs. TGFβ
  change in translational profile of MURC caused by TGFβ: F (F = >2.5)
ENSG00000170801, Control vs. TGFβ
  change in translational profile of HTRA3 caused by TGFβ: C (C = <−1.0 to −1.5)
ENSG00000170889, 5 replicates
  Log2 TE RPS9: 1.6139
ENSG00000170962, 5 replicates
  Log2 TE PDGFD: −1.029
ENSG00000171408, 5 replicates
  Log2 TE PDE7B: −2.782
ENSG00000171408, Control vs. TGFβ
  change in translational profile of PDE7B caused by TGFβ: A (A = <−2.5)
ENSG00000171425, 5 replicates
  Log2 TE ZNF581: 1.45
ENSG00000171517, 5 replicates
  Log2 TE LPAR3: −2.387
ENSG00000171517, Control vs. TGFβ
  change in translational profile of LPAR3 caused by TGFβ: A (A = <−2.5)
ENSG00000171793, 5 replicates
  Log2 TE CTPS: 1.08

Source: patent US9993494B2, “Compositions and methods for treating fibrotic disease” (eFFECTOR Therapeutics, Inc., priority 2014, dated 2018)
